Data from paper PMC6271423, “Synthesis and Biological Evaluation of New Pyridone-Annelated Isoindigos as Anti-Proliferative Agents” (Molecules, 2014).
One block for each compound: values may come before it.

Assays:
K562 cells = test: MTT cell viability (antiproliferative) assay in K562 cells; assay type: cell-based, human; details: for cytotoxicity / antiproliferative activity to K562 cells (in words): 0.0 to 30.0 µM, 24 h; for IC50: Homo sapiens
Method: The antiproliferative activities of the synthesized molecules were initially evaluated in human chronic […] leukemia cells K562. The effect of the six derivatives on the viability of K562 was assessed by an MTT assay as described in the methods. In all MTT tests performed, the known antiproliferative agent etoposide was used as a positive control to validate the accuracy of the assay.
Figure 2 The isoindigo compounds 3b and 3d inhibit the growth of K562 cells in a dose- and time-dependent manner. (A) K562 cells were treated with varying concentrations of compounds 3a to 3f (0.0 to 30.0 µM) for 24 h and the antiproliferative activity was analyzed by MTT assay as described in the methods. (B) K562 cells were incubated with 12.0 µM of either compound 3b or 3d for different periods of time (0 to 72 h) and cell viability was assessed by the MTT assay. The controls (in the presence or absence of the solvent vehicle DMSO) represent cells incubated under similar conditions in the absence of the test compound. The percentage of cell viability in each sample was expressed relative to untreated control, which was considered as a 100%. K562 cells were also treated with 4.0, 8.0 and 12.0 µM etoposide under similar conditions as positive controls. The results shown represent the mean ± SD of three independent trials.
Figure 3 The IC50 values of compounds 3b and 3d determined in K562 cells at different time points. K562 cells were treated with varying concentrations of compounds 3b or 3d (0.0 to 40.0 µM) for different periods of time (24, 48 and 72 h) and their antiproliferative activity was analyzed by MTT viability assay. The sigmoidal curves shown were obtained by plotting the percentages of viability (mean ± SD of three independent experiments, three replicates for each concentration in every experiment were used) versus logarithmic molar concentrations of the test compounds at the three different time points, and the IC50 value was determined using a non-linear regression analysis of GraphPad Prism 6 software.
The human chronic myelogenous leukemia K562 (ATCC® CCL-243^TM) and human acute monocytic leukemia THP-1 (ATCC® TIB-202^TM) suspension cells were maintained in RPMI-1640, while adherent HepG2 (human hepatocellular carcinoma, ATCC® HB-8065^TM), MCF7 (human breast adenocarcinoma, ATCC® HTB-22^TM) were cultured in DMEM medium. Adherent Caco-2 (human colorectal adenocarcinoma, ATCC® HTB-37^TM), HEK-293 (human embryonic epithelial cells, ATCC® CRL-1573^TM) and L-929 (mouse subcutaneous connective tissue fibroblast, ATCC® CCL-1^TM) cells were cultured in MEM medium. The media were supplemented with 10% (v/v) heat inactivated FBS, penicillin G (100 U/mL) and streptomycin ([…]), and cells were incubated at 37 °C in a 5% CO2 humidified incubator. The media were changed every 2–3 days and subcultured when the cell population density reached to 70%–80% confluence. Cells were seeded at an appropriate density according to each experimental design.
The antiproliferative activity of the synthesized compounds was assessed using the MTT cell viability assay. Briefly, 2 × 10^4 of the non-adherent K562 or THP-1 cells, in a 100 μL of RPMI-1640 medium, or […] of adherent HepG2, MCF-7, Caco-2, HEK-293 or L-929, in a same volume of the proper media, were seeded in each well of a 96 well-plate. After 24 h, the media was removed by aspiration and replaced by fresh media containing the test compound at varying concentrations (0.0 to 40.0 µM, for cancerous cells) or (0.0 to 80.0 µM, for noncancerous cells), and incubated for the desired time in a 5% CO2-cell culture incubator. Alternatively, cultured K562 cells were incubated with 12.0 µM of the test compound for different time-points (0, 2, 4, 8, 12, 24, 48 and 72 h) before analysis. […]

HepG2 cells = test: MTT cell viability (antiproliferative) assay in HepG2 cells; assay type: cell-based; details: Homo sapiens, 48 h incubation
Text: (§1) In addition to the effect on K562 cells, we have also evaluated the potential antiproliferative activities of compounds 3b and 3d on different hematological and solid tumor cell lines. […] To further characterize the cytotoxicity of compounds 3b and 3d, we evaluated their effects on inducing apoptosis of the cultured K562 cells (Figure 5).
(§2) Figure 4 Compounds 3b and 3d inhibit the growth of various hematological and solid tumor cell lines but not noncancerous cells at low IC50 values. […]
(§3) The antiproliferative activity of the synthesized compounds was assessed using the MTT cell viability assay. […] Absorbance was measured within 60 min at 595 nm using an E Max Precision Microplate reader (Molecular Devices, Sunnyvale, CA, USA). Cell viability at a given concentration was determined from the following expression: Percentage Viability = (Atest compound − Ablank/Acontrol − Ablank) × 100 (1) where Atest compound = absorbance of wells with cells exposed to test compound in media; Acontrol = absorbance of wells with cells in media and Ablank = absorbance of wells with DMSO only, without cells. […]

L-929 cells = test: MTT cell viability assay in noncancerous L-929 fibroblasts; assay type: cell-based; details: Mus musculus, L929, 48 h incubation
Text: as §1, §2, §3

HEK-293 cells = test: MTT cell viability assay in noncancerous HEK-293 cells; assay type: cell-based; details: Homo sapiens, HEK293, 48 h incubation
Text: as §1, §2, §3

MCF-7 cells = test: MTT cell viability (antiproliferative) assay in MCF-7 cells; assay type: cell-based; details: Homo sapiens, MCF7, 48 h incubation
Text: as §1, §2, §3

Caco-2 cells = test: MTT cell viability (antiproliferative) assay in Caco-2 cells; assay type: cell-based; details: Homo sapiens, 48 h incubation
Text: as §1, §2, §3

THP-1 cells = test: MTT cell viability (antiproliferative) assay in THP-1 cells; assay type: cell-based; details: Homo sapiens, 48 h incubation
Text: as §1, §2, §3

[1] = design: method as in PMID 16330129; details: cited from earlier work

Compound: CCn1cc(C(=O)O)c(=O)c2c3c(ccc21)NC(=O)/C3=C1/C(=O)Nc2ccccc21 [3a, (E)-6-Ethyl-2,9-dioxo-1-(2'-oxoindolin-3'-ylidene)-2,3,6,9-tetrahydro-1H-pyrrolo[3,2-f]quinoline-8-carboxylic acid]
melting point: > 300 °C
cytotoxicity / antiproliferative activity to K562 cells (in words) (K562 cells): significantly inhibited their antiproliferative activities

Compound: CCn1cc(C(=O)O)c(=O)c2c3c(ccc21)NC(=O)/C3=C1/C(=O)Nc2ccc(Br)cc21 [3d, (E)-1-(5'-Bromo-2'-oxoindolin-3'-ylidene)-6-ethyl-2,3,6,9-tetrahydro-2,9-dioxo-1H-pyrrolo[3,2-f]quinoline-8-carboxylic acid]
IC50 (HepG2 cells): 13.9 ± 2.01 µM
IC50 (L-929 cells): 71.9 ± 5.22 µM
cytotoxicity / antiproliferative activity to K562 cells (in words) (K562 cells): significant dose-dependent cytotoxicity
IC50 (K562 cells; K562, 24 h incubation): 19.1 ± 1.8 µM
IC50 (K562 cells; K562, 48 h incubation): 8.66 ± 0.81 µM
IC50 (K562 cells; K562, 72 h incubation): 6.92 ± 0.84 µM
IC50 (HEK-293 cells): 52.5 ± 4.7 µM
IC50 (MCF-7 cells): 15.7 ± 1.94 µM
IC50 (Caco-2 cells): 19 ± 1.37 µM
IC50 (THP-1 cells): 9.1 ± 1 µM

Compound: CCn1cc(C(=O)O)c(=O)c2c3c(ccc21)NC(=O)/C3=C1/C(=O)Nc2cc(Br)ccc21 [3e, (E)-1-(6'-Bromo-2'-oxoindolin-3'-ylidene)-6-ethyl-2,3,6,9-tetrahydro-2,9-dioxo-1H-pyrrolo[3,2-f]quinoline-8-carboxylic acid]
melting point: > 300 °C
cytotoxicity / antiproliferative activity to K562 cells (in words) (K562 cells): significantly abolished the cytotoxicity

Compound: CCn1cc(C(=O)O)c(=O)c2c3c(ccc21)NC(=O)/C3=C1/C(=O)Nc2ccc([N+](=O)[O-])cc21 [3f, (E)-6-Ethyl-1-(5'-nitro-2'-oxoindolin-3'-ylidene)-2,9-dioxo-2,3,6,9-tetrahydro-1H-pyrrolo[3,2-f]quinoline-8-carboxylic acid]
melting point: > 300 °C
cytotoxicity / antiproliferative activity to K562 cells (in words) (K562 cells): significantly inhibited their antiproliferative activities

Compound: CC(=O)OC1COC(N2C(=O)C(=C3C(=O)Nc4ccccc43)c3ccccc32)C(OC(C)=O)C1OC(C)=O [Natura^TM, 1-(β-D-triacetylxylopyranosyl) isoindigo]
solubility in water (in words) [1]: almost completely insoluble in water

More lines, main results first:

IC50 (HepG2 cells): 8.97 ± 0.84 µM
IC50 (K562 cells; K562, 24 h incubation): 15.1 ± 1.27 µM
IC50 (K562 cells; K562, 48 h incubation): 6.6 ± 0.58 µM
IC50 (K562 cells; K562, 72 h incubation): 4.02 ± 0.52 µM
IC50 (MCF-7 cells): 11.9 ± 0.67 µM
IC50 (Caco-2 cells): 14.6 ± 1.32 µM
IC50 (THP-1 cells): 8.21 ± 0.62 µM
Compound: CCn1cc(C(=O)O)c(=O)c2c3c(ccc21)NC(=O)/C3=C1/C(=O)Nc2ccc(Cl)cc21 [3b, (E)-1-(5'-Chloro-2'-oxoindolin-3'-ylidene)-6-ethyl-2,3,6,9-tetrahydro-2,9-dioxo-1H-pyrrolo[3,2-f]quinoline-8-carboxylic acid]
IC50 (L-929 cells): 40.4 ± 3.15 µM
cytotoxicity / antiproliferative activity to K562 cells (in words) (K562 cells): significant dose-dependent cytotoxicity
IC50 (HEK-293 cells): 30.7 ± 2.52 µM

melting point: > 300 °C
Compound: CCn1cc(C(=O)O)c(=O)c2c3c(ccc21)NC(=O)/C3=C1/C(=O)Nc2cc(Cl)ccc21 [3c, (E)-1-(6'-Chloro-2'-oxoindolin-3'-ylidene)-6-ethyl-2,3,6,9-tetrahydro-2,9-dioxo-1H-pyrrolo[3,2-f]quinoline-8-carboxylic acid]
cytotoxicity / antiproliferative activity to K562 cells (in words) (K562 cells): significantly abolished the cytotoxicity
